Source: patent US20250073244A1, “CRYSTALLINE FORMS OF PENTAAZA MACROCYCLIC RING COMPLEX” (Galera Labs, LLC, priority 2023, published 2025)

Assays:
[1] = Equilibration with solvents at 25° C.
Experimental: About 50 mg of drug substance was equilibrated in suitable amount of solvent at 25° C. for 2 weeks with a stirring plate (Table 30). Obtained suspension was filtered. The solid part (wet cake) was investigated by XRPD. When differences were observed, additional investigations were performed (e.g. DSC, TGA. FT-IR, PLM/SEM, etc.).
[…] The solid part (wet cake) was investigated by XRPD. If differences are observed, additional investigation will be performed (e.g. DSC, TGA, HPLC, etc.)

[2] = Crystallization from hot saturated solutions by fast cooling; details: fast cooling from 50° C. (ice bath); MEK; yellow solid
Experimental: Approximate 100 mg of drug substance was dissolved in the minimal amount of selected solvents at 50° C. Obtained solutions were put into an ice bath. Precipitates were collected by filtration. The solid part (wet cake) was investigated by XRPD. When differences were observed, additional investigations were performed (e.g. DSC, TGA. FT-IR, PLM/SEM, etc.). When no precipitation was obtained, the solutions were put in −20° C. freezer for crystallization.

[3] = Crystallization from hot saturated solutions by slow cooling; details: slow cooling 50° C. to 5° C. at 0.1° C./min
Experimental: Approximate 100 mg of drug substance was dissolved in the minimal amount of selected solvents at 50° C. Obtained solutions were cooled to 5° C. at 0.1° C./min. Precipitates were collected by filtration. The solid part (wet cake) was investigated by XRPD. When differences were observed, additional investigations were performed (e.g. DSC, TGA. FT-IR, PLM/SEM, etc.).
Scale up: About 200 mg of drug substance will be dissolved in MEK. Obtained solutions will be applied with cooling rate of 0.1° C./min for slow cooling.

[4] = Scale up experiment of Pattern A and Pattern D; details: Slow cooling, MEK
Experimental: About 6 g API were used for Pattern A and Pattern D scale up.
Obtained suspension was filtered. The solid part (wet cake) was investigated by XRPD.
About 3 g drug substance were equilibrated in 8 mL of solvent (Water: Acetone, 10:90, v:v) at 25° C. for 1 week with a stirring plate. Obtained suspension was filtered. The solid part (wet cake) was investigated by XRPD.

[5] = Water activity study at 25° C. (acetone/water); format: physicochemical; details: Acetone & water, protected by N2, 5 days
Experimental: Water activity experiments were conducted at 25° C. in 10 different water activities with 1 set of organic solvent/water mixtures (acetone/water) to determine critical water activity between anhydrate and hydrate.

[6] = Equilibration with solvents at 50° C. for 1 week
Experimental: About 50 mg of drug substance was equilibrated in minimal amount of solvent at 50° C. for 1 week with a stirring plate (Table 32). Obtained suspension was filtered. The solid part (wet cake) was investigated by XRPD. When differences were observed, additional investigations were performed (e.g. DSC, TGA. FT-IR, PLM/SEM, etc.).

[7] = Precipitation by addition of anti-solvent; details: anti-solvent Heptane
Experimental: About 50 mg of drug substance was dissolved in a good solvent. Anti-solvent was added into the obtained solutions slowly. Precipitates were collected by filtration. The solid part (wet cake) was investigated by XRPD. When differences were observed, additional investigations were performed (e.g. DSC, TGA. FT-IR, PLM/SEM, etc.).
Scale up: About 200 mg of drug substance was dissolved in EtOAc. Heptane was added to the obtained solutions. The solid part (wet cake) was investigated by XRPD. When differences were observed, additional investigations were performed (e.g. DSC, TGA. FT-IR, PLM/SEM, etc.)

[8] = 2 weeks, Heptane/Acetone, 80/20
[9] = 5 days, protected by N2, Acetone
[10] = 5 days, protected by N2, Heptane
[11] = 5 days, protected by N2, Toluene

**Q.** For `CCC(=O)[O][Mn][O]C(=O)CC.c1cc2nc(c1)CN[C@H]1CCCC[C@@H]1NCCN[C@H]1CCCC[C@@H]1NC2` [API], which Comments ([1]; 2 weeks, EtOAc) is on record?
**A.** API degradation,

**Q.** What about the purity ([1]; 2 weeks, EtOAc) of the same compound?
**A.** purity 75.69%

**Q.** What about the purity ([1]; 2 weeks, Heptane) of the same compound?
**A.** Purity 99.02%

**Q.** And the Comments [1, 8]?
**A.** API degradation,

**Q.** What about the purity [1, 8] of the same compound?
**A.** purity 94.83%

**Q.** And the Comments ([1]; 2 weeks, Heptane/EtOAc, 80/20)?
**A.** API degradation,

**Q.** And the purity ([1]; 2 weeks, Heptane/EtOAc, 80/20)?
**A.** purity 92.64%

**Q.** And the Comments ([1]; 2 weeks, IPAC)?
**A.** API degradation,

**Q.** What about the purity ([1]; 2 weeks, IPAC) of the same compound?
**A.** purity 84.49%

**Q.** What about the Comments ([1]; 2 weeks, MTBE) of the same compound?
**A.** API degradation,

**Q.** And the purity ([1]; 2 weeks, MTBE)?
**A.** purity 88.12%

**Q.** And the Comments ([1]; 2 weeks, MTBE/Acetone, 80/20c)?
**A.** API degradation,

**Q.** What about the purity ([1]; 2 weeks, MTBE/Acetone, 80/20c) of the same compound?
**A.** purity 87.39%

**Q.** And the Comments ([1]; 2 weeks, MTBE/EIOAc, 80/20)?
**A.** API degradation,

**Q.** What about the purity ([1]; 2 weeks, MTBE/EIOAc, 80/20) of the same compound?
**A.** purity 89.32%

**Q.** What about the Comments [1, 9] of the same compound?
**A.** API degradation

**Q.** What about the purity [1, 9] of the same compound?
**A.** 98.41%

**Q.** And the Comments ([1]; 5 days, protected by N2, EtOAc)?
**A.** API degradation

**Q.** And the purity ([1]; 5 days, protected by N2, EtOAc)?
**A.** 97.78%

**Q.** What about the Comments [1, 10] of the same compound?
**A.** API degradation

**Q.** What about the purity [1, 10] of the same compound?
**A.** 99.85%

**Q.** What about the Comments ([1]; 5 days, protected by N2, IPAC) of the same compound?
**A.** API degradation

**Q.** What about the purity ([1]; 5 days, protected by N2, IPAC) of the same compound?
**A.** 98.30%

**Q.** What about the Comments ([1]; 5 days, protected by N2, MEK) of the same compound?
**A.** API degradation

**Q.** What about the purity ([1]; 5 days, protected by N2, MEK) of the same compound?
**A.** 97.52%

**Q.** And the Comments ([1]; 5 days, protected by N2, MTBE)?
**A.** API degradation

**Q.** What about the purity ([1]; 5 days, protected by N2, MTBE) of the same compound?
**A.** 98.62%

**Q.** And the Comments [1, 11]?
**A.** API degradation

**Q.** What about the purity [1, 11] of the same compound?
**A.** 92.88%

**Q.** What about the purity [2] of the same compound?
**A.** Yellow solid, 94.19%

**Q.** What about the Comments ([3]; Acetone) of the same compound?
**A.** API was soluble in the solvent

**Q.** And the purity ([3]; EtOAc)?
**A.** White solid, purity 100%

**Q.** And the Comments ([3]; IPA)?
**A.** API was soluble in the solvent

**Q.** What about the Comments ([3]; IPAC) of the same compound?
**A.** API was soluble in the solvent

**Q.** And the purity ([3]; MEK)?
**A.** White solid, purity 100%

**Q.** And the Comments ([3]; Water)?
**A.** API was soluble in the solvent

**Q.** What about the Comments [4] of the same compound?
**A.** API degradation, purity

**Q.** And the purity [4]?
**A.** 93.4%

**Q.** What about the Comments ([5]; a.w. 0) of the same compound?
**A.** API degradation

**Q.** What about the purity ([5]; a.w. 0) of the same compound?
**A.** 97.34%

**Q.** What about the XRPD ([5]; a.w. 0.103) of the same compound?
**A.** Pattern A

**Q.** What about the purity ([5]; a.w. 0.103) of the same compound?
**A.** Purity 98.27%

**Q.** What about the XRPD ([5]; a.w. 0.206) of the same compound?
**A.** Pattern A

**Q.** And the purity ([5]; a.w. 0.206)?
**A.** Purity 99.18%

**Q.** What about the XRPD ([5]; a.w. 0.301) of the same compound?
**A.** Pattern D

**Q.** And the purity ([5]; a.w. 0.301)?
**A.** Purity 99.77%

**Q.** And the XRPD ([5]; a.w. 0.400)?
**A.** Pattern D

**Q.** And the purity ([5]; a.w. 0.400)?
**A.** Purity 99.49%

**Q.** And the XRPD ([5]; a.w. 0.501)?
**A.** Pattern D

**Q.** What about the purity ([5]; a.w. 0.501) of the same compound?
**A.** Purity 99.33%

**Q.** What about the XRPD ([5]; a.w. 0.603) of the same compound?
**A.** Pattern D

**Q.** What about the purity ([5]; a.w. 0.603) of the same compound?
**A.** Purity 99.19%

**Q.** And the Comments ([5]; a.w. 0.703)?
**A.** Clear solution

**Q.** What about the Comments ([5]; a.w. 0.803) of the same compound?
**A.** Clear solution

**Q.** And the Comments ([5]; a.w. 0.901)?
**A.** Clear solution

**Q.** What about the Comments ([6]; Heptane) of the same compound?
**A.** API degradation

**Q.** What about the purity ([6]; Heptane) of the same compound?
**A.** 94.65%

**Q.** What about the Comments ([6]; Heptane/Acetone, 80/20) of the same compound?
**A.** API degradation

**Q.** And the purity ([6]; Heptane/Acetone, 80/20)?
**A.** 95.63%

**Q.** And the Comments ([6]; Heptane/EtOAc, 80/20)?
**A.** API degradation

**Q.** And the purity ([6]; Heptane/EtOAc, 80/20)?
**A.** 85.84%

**Q.** And the Comments ([6]; Heptane/EtOH, 80/20)?
**A.** API was soluble in the solvent

**Q.** And the Comments ([6]; Heptane/IPA, 80/20)?
**A.** API was soluble in the solvent

**Q.** What about the Comments ([6]; MTBE) of the same compound?
**A.** API degradation

**Q.** What about the purity ([6]; MTBE) of the same compound?
**A.** 92.26%

**Q.** What about the Comments ([6]; MTBE/Acetone, 80/20) of the same compound?
**A.** API degradation

**Q.** And the purity ([6]; MTBE/Acetone, 80/20)?
**A.** 93.80%

**Q.** What about the Comments ([6]; MTBE/EtOAc, 80/20) of the same compound?
**A.** API degradation

**Q.** What about the purity ([6]; MTBE/EtOAc, 80/20) of the same compound?
**A.** 87.67%

**Q.** What about the Comments ([6]; MTBE/EtOH, 80/20) of the same compound?
**A.** API was soluble in the solvent

**Q.** What about the Comments ([6]; MTBE/IPA, 80/20) of the same compound?
**A.** API was soluble in the solvent

**Q.** What about the purity ([7]; solvent Acetone) of the same compound?
**A.** purity 99.93%

**Q.** What about the purity ([7]; solvent EtOAc) of the same compound?
**A.** purity 99.95%
